Experimental data: patent US7887827B2, “Use of malonomicin and analogs in fungicidal applications” (Dow AgroSciences LLC, priority 2006, dated 2011)

Tests used:
Type in all cases: in vivo
[1] = test system: Puccinia recondita f. sp. tritici (PUCCRT); assay: Drop Line Test on wheat leaf, Brown Rust of Wheat; conditions: Drop Line Test 0.5 μg/leaf, 2 microliter drop
Procedure: Wheat (cultivar Monon) was grown in plastic pots (6.2 cm×8.75 cm) containing 50 percent mineral soil, 50 percent Metro-Mix 360 (W.R Grace and Co.) until the seedlings were 10-20 cm tall. These plants were then sprayed to runoff with the test compound at a rate of 200 ppm. After 24 hours the test plants were inoculated by spraying with an aqueous spore suspension of Puccinia recondita f. sp. tritici (PUCCRT). The plants were then transferred to a dew chamber for 24 hours, then to the greenhouse until disease developed on the untreated control plants. In Example 3, a Drop Line Test was used, wherein instead of spraying the plant to runoff, a 2 microliter drop was placed on the wheat leaf and observed for disease control.

[2] = test system: Venturia inaequalis (VENTIN); assay: Curative test, Apple Scab (compound added 2 days after inoculation); conditions: curative at 200 ppm
[3] = test system: Venturia inaequalis (VENTIN); assay: One day protectant (1 DP) test, Apple Scab; conditions: 0.1 percent Spraymate X77 + 0.1 percent ammonium sulfate

Compound	PUCCRT percent control of plant disease, Drop Line Test [1]	VENTIN percent control of plant disease, curative [2]	VENTIN percent control of plant disease ([3]; 50 ppm and 100 ppm)	VENTIN percent control of plant disease ([3]; rate 200 ppm)
C[C@H](N)C(=O)NC(CC(=O)O)(CC(=O)C1=C(O)[C@H](CN)NC1=O)C(=O)O (stereo partly shown) [Compound III]	+ (+ = 30-74 percent control of plant disease)			
NC[C@@H]1NC(=O)C(C(=O)CC(NC(=O)[C@@H](N)CO)(C(=O)O)C(=O)O)=C1O [Compound I, {[(2S)-2-amino-3-hydroxypropanoyl]amino}{2-[(5S)-5-(aminomethyl)-4-hydroxy-2-oxo-2,5-dihydro-1H-pyrrol-3-yl]-2-oxoethyl}malonic acid]		++^α (++ = 75-100 percent control of plant disease)	++ (++ = 75-100 percent control of plant disease)	+ (+ = 30-74 percent control of plant disease)
